Laboratory results from patent US20250230147A1, “LACTAMS AS CBL-B INHIBITORS” (Genentech, Inc., priority 2021, published 2025).

Columns and labels:
[1] = target: Cbl-b (Homo sapiens (Human), UniProt Q13191); test: Cbl-b LCK Ub TR-FRET assay (Cbl-b Lck HTRF); type: biochemical
Procedure, shortened: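 TR-FRET (340 nm excitation, 615/665 nm emission) read after adding HA-ubiquitin–UBE2D2 thioester, anti-HA-D2 and streptavidin-Eu. Beforehand, compounds incubated 60 min with biotinylated Cbl-b, then 90 min with His-LCK and ATP (1 mM in 2× mix); IC50 from 10 concentrations, DMSO high and no-LCK low controls.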

[2] = In vivo pharmacokinetics, mouse; design: species or system CD-1 mice; conditions: male, CD-1, plasma; for bioavailability: PO 1-5 mg/kg, read-out: Oral Bioavailability (F %); for clearance: single intravenous bolus 0.2-1 mg/kg, read-out: Mouse CL
Description: The pharmacokinetics of test compounds were evaluated following a single intravenous bolus (IV) of solution at a dose of 0.2-1 mg/kg and oral administration (PO) of solution/suspension at doses of 1-5 mg/kg in male cynomolgus monkey, beagle dogs, Sprague Dawley rats, or CD-1 mice using a parallel study design. Blood samples for the IV dose group were collected prior to administration (predose) and at 0.033, 0.083, 0.25, 0.5, 1, 3, 6, 9 and 24 hours post dose. Blood samples for PO dose groups were collected prior to administration (predose) and at 0.083, 0.25, 0.5, 1, 3, 6, 9 and 24 hours post dose. For the IV group, urine was collected from each animal at predose and from 0-6 and 6-24 hours post dose. The vehicle used for IV dose groups was a combination of PEG400 with citrate buffer (pH 5.0) or PEG400/Cremphor with DMSO/H2O, and for PO groups was MCT.
Plasma and urine concentrations were quantitated at Genentech Inc. using a non-validated LC/MS/MS method. The lower limit of quantitation (LLOQ) of the plasma and urine assays was 0.005 μM. PK parameters were determined by non-compartmental methods using WinNonlin (version 5.2, Pharsight Corporation, Mountain View, CA).

[3] = target: c-Cbl (Homo sapiens (Human), UniProt P22681); test: C-Cbl LCK Ub TR-FRET assay (c-cbl Lck HTRF); type: biochemical; conditions: for (fold-selectivity): C-cbl Lck HTRF IC50 relative to Cbl-b Lck HTRF IC50
Chain of c-Cbl (P22681 47-435): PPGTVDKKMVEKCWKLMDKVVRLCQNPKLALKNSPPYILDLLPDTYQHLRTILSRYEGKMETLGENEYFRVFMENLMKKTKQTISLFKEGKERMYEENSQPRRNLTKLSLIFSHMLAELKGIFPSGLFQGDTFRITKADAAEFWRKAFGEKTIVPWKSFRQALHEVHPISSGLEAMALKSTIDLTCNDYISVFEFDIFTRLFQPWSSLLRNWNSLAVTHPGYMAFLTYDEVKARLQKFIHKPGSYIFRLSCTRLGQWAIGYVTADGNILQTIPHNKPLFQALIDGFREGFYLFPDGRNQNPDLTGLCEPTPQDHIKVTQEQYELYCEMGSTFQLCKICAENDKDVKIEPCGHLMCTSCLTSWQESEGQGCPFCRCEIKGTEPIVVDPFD
Procedure, shortened: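 Signal is read once the detection mix has stood 20 min at ambient temperature. Curves are anchored by DMSO as maximum and by omission of LCK as minimum.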

[4] = system: rat hepatocytes; test: Hepatocyte metabolic stability, rat; type: in vitro ADME; conditions: 1.0 μM compound, 0.5 million cells/mL
Description: (§1) Metabolic stability assays of test compounds were evaluated in cryopreserved pooled rat, mouse, dog, and cynomolgus monkey hepatocytes (CellzDirect; Durham, NC, USA). Membrane integrity of the cells was assessed by trypan blue exclusion. Test compounds (1.0 μM with 0.1% dimethylsulfoxide) were incubated with cells (0.5 million cells/mL) at 37° C. in a 95% air/5% CO2 atmosphere for 0, 20, 40, or 60 minutes. Concentrations of test compounds in hepatocyte incubations were determined by LC/MS/MS. Intrinsic clearance was determined using a substrate depletion method and scaled to hepatic clearance using the well-stirred model as described above for the liver microsomes metabolic stability assays.

[5] = Liver microsomes metabolic stability, dog; type: in vitro ADME; conditions: 1 μM compound, 0.5 mg/mL microsomal protein
Description: (§2) Metabolic stability of test compounds was evaluated in pooled rat, mouse, dog, and cynomolgus monkey liver microsomes (BD Biosciences, San Jose, CA). The incubation conditions were as follows: 1 μM of the tested compound, 1 mM NADPH, 0.5 mg/mL microsomal protein in 0.1 M potassium phosphate buffer (pH 7.4). Following a 5-minute pre-incubation period, the enzymatic reactions were initiated by the addition of NADPH and test compound to the microsomes diluted in phosphate buffered saline. The mixtures were incubated at 37° C. for 0, 20, 40, and 60 min.
(§3) Compound concentrations were assessed by LC-MS/MS. Intrinsic clearance based upon microsomal stability data was determined using a substrate depletion method and scaled to hepatic clearance using the well-stirred model (Obach, R. S.; Baxter, J. G.; Liston, T. E.; Silber, B. M.; Jones, B. C.; Macintyre, F.; Rance, D. J.; Wastall, P., “The Prediction of Human Pharmacokinetic Parameters from Preclinical and in vitro Metabolism Data”, J. Pharmacol. Exp. Ther., (1997), 283 (1), 46-58).

[6] = system: mouse hepatocytes; test: Hepatocyte metabolic stability, mouse; type: in vitro ADME; conditions: 1.0 μM compound, 0.5 million cells/mL
Description: as §1

[7] = Liver microsomes metabolic stability, rat; type: in vitro ADME; conditions: 1 μM compound, 0.5 mg/mL microsomal protein
Description: as §2, §3

[8] = Liver microsomes metabolic stability, mouse; type: in vitro ADME; conditions: 1 μM compound, 0.5 mg/mL microsomal protein
Description: as §2, §3

Chain of Cbl-b (Q13191 40-426): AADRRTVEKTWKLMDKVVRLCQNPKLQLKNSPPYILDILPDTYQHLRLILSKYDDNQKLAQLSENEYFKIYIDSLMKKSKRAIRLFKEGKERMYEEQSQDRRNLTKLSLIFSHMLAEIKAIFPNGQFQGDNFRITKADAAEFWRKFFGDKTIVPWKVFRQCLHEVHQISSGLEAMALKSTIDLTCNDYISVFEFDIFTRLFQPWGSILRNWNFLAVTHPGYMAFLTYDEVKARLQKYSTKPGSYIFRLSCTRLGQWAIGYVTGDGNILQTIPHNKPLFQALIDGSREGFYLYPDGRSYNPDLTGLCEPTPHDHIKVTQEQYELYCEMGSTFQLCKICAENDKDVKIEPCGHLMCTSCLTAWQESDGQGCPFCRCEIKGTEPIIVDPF

| Structure (SMILES) | IC50 [1] [nM] | bioavailability [2] [%] | clearance [2] [mL/min/kg] | IC50 [3] [nM] | (fold-selectivity) [3] | Hepatocyte Pred. CLhep (mL/min/kg) Rat/Mouse/Dog [4] [mL/min/kg] | Liver microsomes Pred. CLhep (mL/min/kg) Rat/Mouse/Dog [5] [mL/min/kg] | Hepatocyte Pred. CLhep (mL/min/kg) Rat/Mouse/Dog [6] [mL/min/kg] | Liver microsomes Pred. CLhep (mL/min/kg) Rat/Mouse/Dog [7] [mL/min/kg] | Liver microsomes Pred. CLhep (mL/min/kg) Rat/Mouse/Dog [8] [mL/min/kg] |
| --- | --- | --- | --- | --- | --- | --- | --- | --- | --- | --- |
| Cn1cnnc1[C@H](F)C1(c2cccc(N3Cc4c(cc(CN5CCC5)cc4C(F)(F)F)C3=O)c2)COC1 [Compound 70, (R)-6-(azetidin-1-ylmethyl)-2-(3-(3-(fluoro(4-methyl-4H-1,2,4-triazol-3-yl)methyl)oxetan-3-yl)phenyl)-4-(trifluoromethyl)isoindolin-1-one] | 110 | 2 | 44 | 210 | 1.9x |  |  |  |  |  |
| Cn1cnnc1[C@H](F)C1(c2cccc(N3Cc4c(cc(CN)cc4C(F)(F)F)C3=O)c2)COC1 [Compound 68, (R)-6-(aminomethyl)-2-(3-(3-(fluoro(4-methyl-4H-1,2,4-triazol-3-yl)methyl)oxetan-3-yl)phenyl)-4-(trifluoromethyl)isoindolin-1-one] | 79 |  |  | 110 | 1.3x | 19 | 12 | 37 | 6 | 14 |
| CNCc1cc2c(c(C(F)(F)F)c1)CN(c1cccc(C3([C@@H](F)c4nncn4C)COC3)c1)C2=O [Compound 212, (R)-2-(3-(3-(fluoro(4-methyl-4H-1,2,4-triazol-3-yl)methyl)oxetan-3-yl)phenyl)-6-((methylamino)methyl)-4-(trifluoromethyl)isoindolin-1-one] | 75 |  |  | 130 | 1.7 x |  |  |  |  |  |
| COc1cccc2c1CN(c1cccc(C3([C@@H](F)c4nncn4C)COC3)c1)C2=O [Compound 206, (R)-2-(3-(3-(fluoro(4-methyl-4H-1,2,4-triazol-3-yl)methyl)oxetan-3-yl)phenyl)-4-methoxyisoindolin-1-one] | 1500 |  |  | 2300 | 1.5x |  |  |  |  |  |
| COCC1(F)CN(Cc2cc3c(c(C(F)(F)F)c2)CN(c2cccc(C4([C@@H](F)c5nncn5C)COC4)c2)C3=O)C1 [Compound 135, (R)-2-(3-(3-(fluoro(4-methyl-4H-1,2,4-triazol-3-yl)methyl)oxetan-3-yl)phenyl)-6-((3-fluoro-3-(methoxymethyl)azetidin-1-yl)methyl)-4-(trifluoromethyl)isoindolin-1-one] | 96 |  |  | 180 | 1.9x |  |  |  |  |  |
| Cn1cnnc1[C@@H](F)C1(c2cccc(N3Cc4c(cc(CN5CCC(F)(CO)CC5)cc4C(F)(F)F)C3=O)c2)COC1 [Compound 134, (S)-2-(3-(3-(fluoro(4-methyl-4H-1,2,4-triazol-3-yl)methyl)oxetan-3-yl)phenyl)-6-((4-fluoro-4-(hydroxymethyl)piperidin-1-yl)methyl)-4-(trifluoromethyl)isoindolin-1-one] | 210 |  |  | 670 | 3.3x |  |  |  |  |  |
| Cn1cnnc1[C@@H](F)C1(c2cccc(N3Cc4c(cc(CC5CNC5)cc4C(F)(F)F)C3=O)c2)COC1 [Compound 58, (S)-6-(azetidin-3-ylmethyl)-2-(3-(3-(fluoro(4-methyl-4H-1,2,4-triazol-3-yl)methyl)oxetan-3-yl)phenyl)-4-(trifluoromethyl)isoindolin-1-one] | 200 |  |  | 360 | 1.8x |  |  |  |  |  |

These reach a lower IC50 [1]. Values come first.

| IC50 [1] [nM] | bioavailability [2] [%] | clearance [2] [mL/min/kg] | IC50 [3] [nM] | (fold-selectivity) [3] | Hepatocyte Pred. CLhep (mL/min/kg) Rat/Mouse/Dog [4] [mL/min/kg] | Liver microsomes Pred. CLhep (mL/min/kg) Rat/Mouse/Dog [5] [mL/min/kg] | Hepatocyte Pred. CLhep (mL/min/kg) Rat/Mouse/Dog [6] [mL/min/kg] | Liver microsomes Pred. CLhep (mL/min/kg) Rat/Mouse/Dog [7] [mL/min/kg] | Liver microsomes Pred. CLhep (mL/min/kg) Rat/Mouse/Dog [8] [mL/min/kg] | Structure (SMILES) |
| --- | --- | --- | --- | --- | --- | --- | --- | --- | --- | --- |
| 12 | 21 | 34 | 11 | 0.95x |  |  |  |  |  | CC(C)[C@H]1CN(C)CCN1Cc1cc2c(c(C(F)(F)F)c1)CN(c1cccc(C3([C@@H](F)c4nncn4C)CC(F)(F)C3)c1)C2=O [Compound 189, 2-(3-(3,3-difluoro-1-((R)-fluoro(4-methyl-4H-1,2,4-triazol-3-yl)methyl)cyclobutyl)phenyl)-6-(((S)-2-isopropyl-4-methylpiperazin-1-yl)methyl)-4-(trifluoromethyl)isoindolin-1-one] |
| 11 | 13 | 42 | 13 | 1.1x |  |  |  |  |  | CC(C)[C@H]1CN(C)CCN1Cc1cc2c(c(C(F)(F)F)c1)CN(c1cccc(C3([C@@H](F)c4nncn4C)COC3)c1)C2=O [Compound 187, 2-(3-(3-((R)-fluoro(4-methyl-4H-1,2,4-triazol-3-yl)methyl)oxetan-3-yl)phenyl)-6-(((S)-2-isopropyl-4-methylpiperazin-1-yl)methyl)-4-(trifluoromethyl)isoindolin-1-one] |
| 57 |  |  | 120 | 2.2x | 11 | 19 | 35 | 15 | 37 | Cn1cnnc1[C@H](F)C1(c2cccc(N3Cc4c(cc(CN5CC(C)(CO)C5)cc4C(F)(F)F)C3=O)c2)COC1 [Compound 74, (R)-2-(3-(3-(fluoro(4-methyl-4H-1,2,4-triazol-3-yl)methyl)oxetan-3-yl)phenyl)-6((3-(hydroxymethyl)-3-methylazetidin-1-yl)methyl)-4-(trifluoromethyl)isoindolin-1-one] |
| 7.6 |  |  | 11 | (1.4x) |  |  |  |  |  | C[C@@H](NC1(C)CCC1)c1cc2c(c(C(F)(F)F)c1)CN(c1cccc(C3([C@@H](F)c4nncn4C)COC3)c1)C2=O [Compound 247, 2-(3-(3-((R)-fluoro(4-methyl-4H-1,2,4-triazol-3-yl)methyl)oxetan-3-yl)phenyl)-6-((R)-1-((1-methylcyclobutyl)amino)ethyl)-4-(trifluoromethyl)isoindolin-1-one] |
| 18 |  |  | 19 | 1.0x |  |  |  |  |  | Cn1cnnc1CC1(c2cccc(N3Cc4c(cc(CN5CC(C)(F)C5)cc4C(F)(F)F)C3=O)c2)CC(F)(F)C1 [Compound 107, 2-(3-(3,3-difluoro-1-((4-methyl-4H-1,2,4-triazol-3-yl)methyl)cyclobutyl)phenyl)-6-((3-fluoro-3-methylazetidin-1-yl)methyl)-4-(trifluoromethyl)isoindolin-1-one] |
| 33 |  |  | 63 | (1.9x) |  |  |  |  |  | Cn1cnnc1[C@H](F)C1(c2cccc(N3Cc4c(cc([C@@H](N)C5CCC5)cc4C(F)(F)F)C3=O)c2)COC1 [Compound 391, 6-((S)-amino(cyclobutyl)methyl)-2-(3-(3-((R)-fluoro(4-methyl-4H-1,2,4-triazol-3-yl)methyl)oxetan-3-yl)phenyl)-4-(trifluoromethyl)isoindolin-1-one] |
| 34 |  |  | 63 | 1.9x |  |  |  |  |  | Cn1cnnc1[C@H](F)C1(c2cccc(N3Cc4c(cc([C@@H](N)C5CC5)cc4C(F)(F)F)C3=O)c2)COC1 [Compound 53, 6-((S)-amino(cyclopropyl)methyl)-2-(3-(3-((R)-fluoro(4-methyl-4H-1,2,4-triazol-3-yl)methyl)oxetan-3-yl)phenyl)-4-(trifluoromethyl)isoindolin-1-one] |
